The numbers were not newly measured in patent publication US10369118B2, “Method of reducing scarring” (Cole Research & Design, Inc., priority 2013, dated 2019), which cites them from elsewhere.

In one data set the test system is keratinocytes. The conditions noted are these: appear to be cytotoxic.

Consider `Oc1ccc(/C=C/c2cc(O)cc(O)c2)cc1` [resveratrol, trans-3,4′,5-trihydroxystilbene], for which the solubility in water entry is recorded as “very low solubility”. The “concentrations cytotoxic to keratinocytes” value with keratinocytes is recorded as “above 100 micromoles/liter”.
